We go through seven compounds from ChEMBL document CHEMBL3585275, “Glycosyl hydroperoxides: a new class of potential antimalarial agents” (Bioorg Med Chem, 2015).

The test system of data set [1] is Plasmodium falciparum. Put plainly: Antimalarial activity against chloroquine-sensitive Plasmodium falciparum D10 infected in human type A-positive red blood cells assessed as parasite growth inhibition after 72 hrs by lactate dehydrogenase assay. The conditions noted are these: D10, 72 h. It counts as functional, organism-based.
For data set [2], the system named is Plasmodium falciparum. The data set is described as follows: Antimalarial activity against chloroquine-resistant Plasmodium falciparum W2 infected in human type A-positive red blood cells assessed as parasite growth inhibition after 72 hrs by lactate dehydrogenase assay. It counts as functional, organism-based. Particulars: W2, 72 h; call rule not given here.
Data set [3] in a line: Inhibition of hemin crystallization at 0.25 to 10 mol equiv after 18 hrs by spectrophotometric analysis. It counts as physicochemical.

Values after ≈ are worked out from the molar mass of the structure shown.

As a reminder, the IC50 is the concentration needed to halve the response being measured. Take `CCCCCCCOC[C@H]1O[C@H](OO)C[C@@H](OCCCCCCC)[C@H]1OCCCCCCC`: the IC50 in the data set on Plasmodium falciparum [1] and in the data set on Plasmodium falciparum [2] was over 5 µg/mL throughout. In data set [3], the “inhibition (INH)” value is “Not Active”.
On to `CCCCCCCCCCCCOC[C@H]1O[C@H](OO)C[C@@H](OCCCCCCCCCCCC)[C@H]1OCCCCCCCCCCCC`, for which the IC50 in the data set on Plasmodium falciparum [1] and in the data set on Plasmodium falciparum [2] was over 5 µg/mL in each case. Also, in data set [3], the “inhibition (INH)” value was “Not Active”.
For the compound `CCCCCCCCCCCCCCCCCCOC[C@H]1O[C@H](OO)C[C@@H](OCCCCCCCCCCCCCCCCCC)[C@H]1OCCCCCCCCCCCCCCCCCC`, the half-inhibitory concentration (IC50) in the data set on Plasmodium falciparum [1] and in the data set on Plasmodium falciparum [2] was over 5 µg/mL each time. Also, in data set [3], the “inhibition (INH)” value is “Not Active”.
With `CCCCCCCO[C@H]1C[C@@H](OO)OC[C@H]1OCCCCCCC`, the IC50 stood at 1.42 µg/mL (≈ 4.09 µM) with Plasmodium falciparum [1] and 1.69 µg/mL (≈ 4.88 µM) in the data set with Plasmodium falciparum [2]. In addition, the “inhibition (INH)” value in data set [3] is on record as “Active”.
The matching figures for `CCCCCCCCCCCCCCCCCC(=O)O[C@@H]1C[C@@H](OO)O[C@H]1[C@@H](O)CO`: over 5 µg/mL, over 5 µg/mL and “Not Active”.
For `C[C@@H]1CC[C@H]2[C@@H](C)C(=O)O[C@@H]3O[C@@]4(C)CC[C@@H]1[C@]32OO4` [ARTEMISININ], the results for the IC50 with Plasmodium falciparum [1] and with Plasmodium falciparum [2] were 0.0121 µg/mL (≈ 0.043 µM) and 0.00824 µg/mL (≈ 0.0292 µM), respectively.
Regarding `CCN(CC)CCCC(C)Nc1ccnc2cc(Cl)ccc12` (stereo not drawn) [CHLOROQUINE], the “inhibition (INH)” value in data set [3] is reported as “Active”.
